Data taken from US12357695B2, “Peptides and nanoparticles for intracellular delivery of molecules” (AADIGEN, LLC, priority 2019, dated 2025).
Square brackets hold non-standard residues; d marks the D form. Ava = NCCCCC(=O)O; βAla = NCCC(=O)O

Tests used:
[1] = tested on: mice or rat models; experiment: Summary of cargo delivery to targeted organ (Table 1); assay type: in vivo; details: cargoes and route (IV, IM, SQ, NB) per peptide as listed in Table 1
Text: Table 1 lists a summary of cell-penetrating peptides that have been proven successful in delivering various cargo molecules to on or more targeted organ (e.g., by intravenous (IV), intramuscular (IM), or subcutaneous (SQ) administration, or intratraccheal instillation or nebulization (NB)) in mice or rat models.

[2] = tested on: mice; experiment: In vivo delivery of Luciferase mRNA by targeted ADGN-peptide variants, intravenous (Example 9); details: 5 μg Luc mRNA
[3] = tested on: 293T cells; experiment: Cellular delivery of Luciferase mRNA, luciferase expression at 72 hrs; assay type: cell-based; details: 0.25 μg Luc mRNA
Experimental: FIGS. 1A-1C show luciferase expression in 293T cells treated with ADGN-peptide/mRNA complexes. 293T cells cultured in 48 well plates were transfected with ADGN-peptide nanoparticles. ADGN-100, ADGN-106, ADGN-100RI, ADGN-106RI, ADGN-100 Stearyl, ADGN-Hydro1, ADGN-Hydro2, ADGN-Hydro3, ADGN-Hydro4, ADGN-Hydro5, ADGN-Hydro6 and ADGN-peptide/ADGN-100PEG 10% nanoparticles containing 0.25 μg mRNA were formed in sterile water, diluted in sterile water containing 5% Sucrose and filtered with 0.45 μm PES filters. ADGN/mRNA complexes were incubated for 3 hrs in the presence of either 25% serum or heparan sulfate prior transfection. Luciferase expression was monitored 72 hours post transfection and results were reported as RLU (luminescence):mg of protein.
Complex formation with mRNA. The following protocols were used for the transfection of 2-5 106 Cells or Cells at confluency of about 70-80% cultured in 24 well plates. ADGN peptide/mRNA particles were prepared at a 20:1 molar ratio of ADGN-Peptide/mRNA. using (0.25 μg) mRNA. Luc mRNA (0.25 μg) was diluted in 20 μl of sterile water (GIBCO) at room temperature. 5 μl Final Peptide Solution was added to obtain a total volume of 20 μl. The volume was adjusted to 50 μl with sterile water and was mixed gently with vortex 1 min low speed and incubated 30 min at room temperature. Then the volume was made up to 100 μl by adding sterile water containing 5% sucrose, and the solution was mixed gently with vortex 1 min low speed and incubate 5 min at 37° C. and then was proceeded to cell transfection.
Transfection protocol. Protocol is reported for 24 well plate format. Cells were cultured in Dulbecco's Modified Eagle's Medium (DMEM), supplemented with 2 mM glutamine, 1% antibiotics (streptomycin 10,000 μg/mL, penicillin, 10,000 IU/mL) and 10% (w/v) foetal calf serum (FCS), at 37° C. in a humidified atmosphere containing 5% CO2. 24 well plates seeded with 150,000 cells the day prior to transfection were grown to 50-60% confluence and set up to be at about 70% confluences at the time of transfection. Before transfection, cells were washed twice with DMEM. Cells were then overlaid with 0.1 ml of ADGN-peptide/cargo complex solution containing 0.25 μg mRNA, 0.15 μg plasmid DNA or 10-25 nM siRNA, mixed gently, and incubated for 10 min at 37° C. 0.2 mL of fresh DMEM, were added and cells were incubated for 20 min at 37° C. 1 mL of complete DMEM containing 15% FCS were then added in order to reach a final FCS concentration of 10%, without removing the overlay of ADGN-peptide/cargo complexes. Cells were returned to the incubator (37° C., 5% CO2) and 72 hrs post transfection.
ADGN-peptides were evaluated for cellular delivery of Luciferase mRNA in 293T cells. A single dose of mRNA of 0.25 μg was evaluated. Luc mRNA (0.25 μg) in sterile water (GIBCO) were mixed with ADGN-100, ADGN-100RI, ADGN-106, ADGN-106RI, ADGN-100 Stearyl, ADGN-Hydro1, ADGN-Hydro2, ADGN-Hydro5 and ADGN-Hydro6. ADGN-peptide/mRNA complexes were filtered with 0.45 μm PES filter. In order to evaluate the stability of the ADGN/mRNA complexes in high serum and cell culture conditions, the complexes were incubated for 3 hrs in the presence of either 25% serum or heparan sulfate prior transfection, then 293T cells were transfected and Luciferase expression was monitored at 72 hrs.
ADGN-106 peptides containing YIGSR targeting sequence were evaluated for cellular delivery of Luciferase mRNA in 293T cells. A single dose of mRNA of 0.25 μg was evaluated. Luc mRNA (0.25 μg) in sterile water (GIBCO) were mixed with ADGN-106 and ADGN-106Hydro variant. ADGN-peptide/mRNA complexes were filtered with 0.45 μm PES filter. The ADGN-106/mRNA complexes were incubated for 3 hrs in the presence of 25% serum prior transfection, then 293T cells were transfected and Luciferase expression was monitored at 72 hrs.

Substance	Targeted Organ [1]	target delivery and expression of mRNA (tissues) [2]	other results
AC-ALWRA(GalNac)LWRLWRSLWRLLWKA-NH2 [ADGN-106GALNAC]	Liver	mRNA accumulation in the liver	
Ac-ASSLNIA-Ava-KWWERWWREWPRKRR-NH2 [ADGN-103C]		negligible luciferase expression	
Ac-CARPAR-WRSAGWRWRLWRVRSWSR-NH2 (Ac-CARPARWRSAGWRWRLWRVRSWSR-NH2) [ADGN-101]	Heart/Lung	heart and muscles	increase of luciferase expression / efficiency in the lung relative to parent peptide [2]: 6 fold
Ac-CKRAV-RWWLRWASRWFSRWAWWR-NH2 [ADGN-109b]		the lung, heart and muscles	
Ac-CKTRRVP-WRALWRLWRSLWRLLWKA-NH2 (Ac-CKTRRVPWRALWRLWRSLWRLLWKA-NH2) [ADGN-106TD]	Muscle/Heart	heart and muscles	
Ac-KSYDTYAAETR-RWASRWFSRWAWWR-NH2 [ADGN-109D]		the brain and lymphnode and at lower level in liver and kidney	
Ac-KSYDTY[Ava]ALRWLRWASRWFSRWAWR-NH2 [ADGN-109]		the brain and lymphnode and at lower level in liver and kidney	
Ac-KWRSA(GalNac)LWRWRLWRVRSWSR-NH2 (Ac-KWRSA[GalNAc]LWRWRLWRVRSWSR-NH2; not fully specified; printed as Ac-KWRSA(GalNac)LWRWRLWRVRSWSR-NH2) [ADGN-100GALNAC]	Liver	mRNA accumulation in the liver	
Ac-LSSRLDA-Ava-KWWERWWREWPRKRR [ADGN-104]		heart and muscles and at lower level in the liver	
Ac-SYTSSTM-Ava-KWWERWWREWPRKRR [ADGN-105]		the brain and at lower level in liver, lung and lymphnode	
Ac-SYTSSTM-Ava-βALWRALWRLWRSLWRLLWKA-NH2 (Ac-SYTSSTM[Ava][βAla]LWRALWRLWRSLWRLLWKA-NH2; SMILES CSCC[C@H](NC(=O)[C@@H](NC(=O)[C@H](CO)NC(=O)[C@H](CO)NC(=O)[C@@H](NC(=O)[C@H](Cc1ccc(O)cc1)NC(=O)[C@H](CO)NC(C)=O)[C@@H](C)O)[C@@H](C)O)C(=O)NCCCCC(=O)NCCC(=O)N[C@@H](CC(C)C)C(=O)N[C@@H](Cc1c[nH]c2ccccc12)C(=O)N[C@@H](CCCNC(=N)N)C(=O)N[C@@H](C)C(=O)N[C@@H](CC(C)C)C(=O)N[C@@H](Cc1c[nH]c2ccccc12)C(=O)N[C@@H](CCCNC(=N)N)C(=O)N[C@@H](CC(C)C)C(=O)N[C@@H](Cc1c[nH]c2ccccc12)C(=O)N[C@@H](CCCNC(=N)N)C(=O)N[C@@H](CO)C(=O)N[C@@H](CC(C)C)C(=O)N[C@@H](Cc1c[nH]c2ccccc12)C(=O)N[C@@H](CCCNC(=N)N)C(=O)N[C@@H](CC(C)C)C(=O)N[C@@H](CC(C)C)C(=O)N[C@@H](Cc1c[nH]c2ccccc12)C(=O)N[C@@H](CCCCN)C(=O)N[C@@H](C)C(N)=O) [ADGN-106TB]	Brain/Liver	the brain	
Ac-TGNYKALHPDHNG-WRSALRWRLWRWSR-NH2 [ADGN-102]	Brain/Lung	the brain	increase of luciferase expression / efficiency in the lung relative to parent peptide [2]: 3 fold
Ac-THRPPNWSPVWP-RALWRLWRSLWRLRWKA-NH2 (Ac-THRPPNWSPVWPRALWRLWRSLWRLRWKA-NH2) [ADGN-106TC]	Brain	the brain	
Ac-YIGSR-Ahx-ALWRALWRLWRSLWRLLWKA-NH2 [ADGN-106-Hydro-8]			luciferase expression ([3]; absence of serum or heparan sulfate treatment): high level of luciferase expression; reduction of efficiency / luciferase expression after serum treatment ([3]; complexes incubated 3 hrs in 25% serum prior transfection): 17%; increase of mRNA expression / efficiency in the liver relative to ADGN-106 or ADGN-100 ([2]; liver): 2 folds; increase of efficiency in the muscle relative to ADGN-106 ([2]; muscle): 5 folds
Ac-YIGSR-Ahx-KWRSALWRWRLWRVRSWSR-NH2 [ADGN-100-Hydro-8]	Tumor/Lung		increase of efficiency in the kidney relative to ADGN-100 ([2]; kidney): 4 folds; increase of luciferase expression / efficiency in the lung relative to parent peptide [2]: 22 fold
